Molecular target: T1, elastase from porcine pancreas (EC 3.4.21.36) (Sus scrofa, UniProt P00772)
T1 construct: gene CELA1; commercial native enzyme from porcine pancreas (Sigma-Aldrich), mature; docking model PDB 1BRU (elastase 2) is not the assay sample
Test: N-succinyl-Ala-Ala-Ala-p-nitroanilide hydrolysis, absorbance at […] nm
Assay type: biochemical

T1 sequence (P00772 27-266): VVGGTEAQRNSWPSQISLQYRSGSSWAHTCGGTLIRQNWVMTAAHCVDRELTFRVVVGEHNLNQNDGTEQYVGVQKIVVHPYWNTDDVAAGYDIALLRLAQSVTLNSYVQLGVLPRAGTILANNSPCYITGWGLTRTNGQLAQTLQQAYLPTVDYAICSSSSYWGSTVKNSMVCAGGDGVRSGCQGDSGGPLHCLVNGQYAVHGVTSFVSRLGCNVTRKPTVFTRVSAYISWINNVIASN

## Oc1cc(O)c2c(c1)OC(c1ccc(O)c(O)c1)C(O)C2 (racemic) [catechin]
  IC50: 18.4 µM
